Data from patent US20240158446A1, “CYCLIC COMPOUND HAVING SELECTIVE INHIBITORY ACTION ON KRAS OVER HRAS AND NRAS” (CHUGAI SEIYAKU KABUSHIKI KAISHA, priority 2021, published 2024).
Like-named read-outs stand apart in the source and are kept apart here.

Tests used:
[1] = target: GDP-bound HRAS wild-type protein (Homo sapiens, UniProt P01112); assay: Binding to HRAS by surface plasmon resonance (SPR), Single Cycle Kinetics; conditions: for HRAS/KRAS (ratio of KD value for HRAS to KD value for KRAS): GDP-bound HRAS wild-type protein vs GDP-bound KRAS wild-type protein; for HRAS/KRAS (ratio of KD value with respect to GDP-bound HRAS wild-type protein to KD value with respect to KRAS): SPR KD ratio HRAS/KRAS, class symbols
GDP-bound HRAS wild-type protein, sequence (P01112 whole entry): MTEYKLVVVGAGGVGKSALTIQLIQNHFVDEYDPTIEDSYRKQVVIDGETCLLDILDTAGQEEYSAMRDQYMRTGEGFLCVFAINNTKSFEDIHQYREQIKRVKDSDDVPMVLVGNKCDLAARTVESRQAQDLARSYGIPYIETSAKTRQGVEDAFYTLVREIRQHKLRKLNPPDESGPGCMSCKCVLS

[2] = test system: human lung cancer strain NCI-H441;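 further: cell proliferation inhibition after four days measured by CellTiter-Glo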
[3] = target: GDP-bound NRAS wild-type protein (Homo sapiens, UniProt P01111); assay: Binding to NRAS by surface plasmon resonance (SPR), Single Cycle Kinetics; conditions: for NRAS/KRAS (ratio of KD value for NRAS to KD value for KRAS): GDP-bound NRAS wild-type protein vs GDP-bound KRAS wild-type protein; for NRAS/KRAS (ratio of KD value with respect to GDP-bound NRAS wild-type protein to KD value with respect to KRAS): SPR KD ratio NRAS/KRAS, class symbols
GDP-bound NRAS wild-type protein, sequence (P01111 whole entry): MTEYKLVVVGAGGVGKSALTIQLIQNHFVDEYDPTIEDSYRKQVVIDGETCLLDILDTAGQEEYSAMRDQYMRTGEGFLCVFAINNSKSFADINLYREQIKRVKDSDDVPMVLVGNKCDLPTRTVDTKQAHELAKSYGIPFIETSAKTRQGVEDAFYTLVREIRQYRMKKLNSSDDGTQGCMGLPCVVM

[4] = target: GDP-bound KRAS wild-type protein (Homo sapiens, UniProt P01116); assay: Binding to KRAS by surface plasmon resonance (SPR), Single Cycle Kinetics; conditions: GDP-bound KRAS wild-type protein, read-out: KRAS KD
GDP-bound KRAS wild-type protein, sequence (P01116 whole entry): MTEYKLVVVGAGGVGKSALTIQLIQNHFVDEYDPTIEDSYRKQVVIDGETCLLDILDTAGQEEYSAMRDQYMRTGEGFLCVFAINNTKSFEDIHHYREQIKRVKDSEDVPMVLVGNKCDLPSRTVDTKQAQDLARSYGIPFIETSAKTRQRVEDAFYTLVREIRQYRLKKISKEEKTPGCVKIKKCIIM

[5] = SPR, Single Cycle Kinetics, 1:1 binding model
[6] = SPR Single Cycle Kinetics, 1:1 binding model

Row | Structure (SMILES) | HRAS/KRAS (ratio of KD value for HRAS to KD value for KRAS) ([1]; SPR) | IC50 [2] [nM] | NRAS/KRAS (ratio of KD value for NRAS to KD value for KRAS) ([3]; SPR) | Kd ([4]; SPR, Single Cycle Kinetics) [nM] | HRAS/KRAS (ratio of KD value for HRAS to KD value for KRAS) ([1]; SPR, KD ratio class) | NRAS/KRAS (ratio of KD value for NRAS to KD value for KRAS) ([3]; SPR, KD ratio class) | Kd [4, 5] [nM] | other results
1 | CC[C@H](C)[C@@H]1NC(=O)[C@H](CC)N(C)C(=O)C[C@@H](C(=O)N(C)C)N(C)C(=O)[C@H](C2CCCC2)N(C)C(=O)C2(CCC2)NC(=O)[C@@H]2C[C@H](C)CN2C(=O)[C@H](CCc2cc(F)c(C(F)(F)F)c(F)c2)NC(=O)CN(C)C(=O)[C@H](Cc2ccc(C(F)(F)F)cc2)N2CC/C=C\C[C@@H](C2=O)N(C)C(=O)CN(C)C1=O [PP1134, (2S,8S,12S,14S,20S,23S,27S,30S,36S,38Z)-20-cyclopentyl-8-[2-[3,5-difluoro-4-(trifluoromethyl)phenyl]ethyl]-27-ethyl-N,N,4,12,19,22,26,32,35-nonamethyl-30-[(1S)-1-methylpropyl]-3,6,9,15,18,21,25,28,31,34,42-undecaoxo-2-[[4-(trifluoromethyl)phenyl]methyl]spiro[1,4,7,10,16,19,22,26,29,32,35-undecazatricyclo[34.5.1.0^10,14]dotetracont-38-ene-17,1′-cyclobutane]-23-carboxamide] | B (a compound having 3 or more and less than 10 is denoted as B) | 20 | A (a compound having 10 or more and less than 20 is denoted as A) | 0.06 |  |  |  | 
2 | CCO[C@@H]1C[C@H]2C(=O)NC3(CCC3)C(=O)N(C)[C@@H](C3CCCC3)C(=O)N(C)[C@H](C(=O)N3CCOCC3)CC(=O)N(C)[C@@H](CC)C(=O)N[C@@H]([C@@H](C)CC)C(=O)N(C)CC(=O)N(C)[C@H]3C/C=C\CCN(C3=O)[C@@H](Cc3ccc(C(F)(F)F)cc3)C(=O)N(C)CC(=O)N[C@@H](CCc3ccc(C(F)(F)F)c(Cl)c3)C(=O)N2C1 [PP1281, (2S,8S,12R,14S,20S,23S,27S,30S,36S,38Z)-8-[2-[3-chloro-4-(trifluoromethyl)phenyl]ethyl]-20-cyclopentyl-12-ethoxy-27-ethyl-4,19,22,26,32,35-hexamethyl-30-[(1S)-1-methylpropyl]-23-(morpholine-4-carbonyl)-2-[[4-(trifluoromethyl)phenyl]methyl]spiro[1,4,7,10,16,19,22,26,29,32,35-undecazatricyclo[34.5.1.0^10,14]dotetracont-38-ene-17,1′-cyclobutane]-3,6,9,15,18,21,25,28,31,34,42-undecone] |  | 10.2 |  |  | A (a compound having 10 or more and less than 20 is denoted as A) | AA (a compound having 20 or more is denoted as AA) | 0.14 | 
3 | CCC[C@H]1C(=O)N[C@@H](CC(C)C)C(=O)N(CC)CC(=O)N(C)[C@H]2C/C=C\CCN(C2=O)[C@@H](Cc2ccc(C)cc2)C(=O)N(C)CC(=O)N[C@@H](CCc2ccc(C(F)(F)F)c(Cl)c2)C(=O)N2C[C@H](OCC)C[C@H]2C(=O)NC2(CCC2)C(=O)N(C)[C@@H](C2CCCC2)C(=O)N(C)[C@H](C(=O)N(C)C)CC(=O)N1C [PP2545] |  | 279 |  |  |  |  |  | HRAS/KRAS (ratio of KD value with respect to GDP-bound HRAS wild-type protein to KD value with respect to KRAS) [1]: A (a compound having 10 or more and less than 20 is denoted as A); NRAS/KRAS (ratio of KD value with respect to GDP-bound NRAS wild-type protein to KD value with respect to KRAS) [3]: A (a compound having 10 or more and less than 20 is denoted as A); Kd [4, 6]: 4.3 nM
4 | CC[C@H](C)[C@@H]1NC(=O)[C@H](COC)N(C)C(=O)C[C@@H](C(=O)N(C)C)N(C)C(=O)[C@H](C2CCCC2)N(C)C(=O)C2(CC(C)(C)C2)NC(=O)[C@@H]2C[C@@H](OC3CCC3)CN2C(=O)[C@H](CCc2cc(F)c(C(F)(F)F)c(F)c2)NC(=O)CN(C)C(=O)[C@H](CC2CCCCC2)N2CC/C=C\C[C@@H](C2=O)N(C)C(=O)CN(C2CC2)C1=O [PP2618] |  | 69.5 |  |  |  |  |  | HRAS/KRAS (ratio of KD value with respect to GDP-bound HRAS wild-type protein to KD value with respect to KRAS) [1]: A (a compound having 10 or more and less than 20 is denoted as A); NRAS/KRAS (ratio of KD value with respect to GDP-bound NRAS wild-type protein to KD value with respect to KRAS) [3]: A (a compound having 10 or more and less than 20 is denoted as A); Kd [4, 6]: 1.4 nM
5 | CCO[C@@H]1C[C@H]2C(=O)NC3(CCC3)C(=O)N(C)[C@@H](C3CCCC3)C(=O)N(C)[C@H](C(=O)N(C)C)CC(=O)N(C)[C@@H](CC)C(=O)N[C@@H]([C@@H](C)CC)C(=O)N(C)CC(=O)N(C)[C@H]3C/C=C\CCN(C3=O)[C@@H](Cc3ccc(C(F)(F)F)cc3)C(=O)N(C)CC(=O)N[C@@H](CCc3cc(F)c(Cl)c(F)c3)C(=O)N2C1 [PP1262] |  | 56.7 |  |  | B (a compound having 3 or more and less than 10 is denoted as B) | A (a compound having 10 or more and less than 20 is denoted as A) | 0.24 | 
6 | CCO[C@@H]1C[C@H]2C(=O)NC3(CCC3)C(=O)N(C)[C@@H](C3CCCC3)C(=O)N(C)[C@H](C(=O)N(C)C)CC(=O)N(C)[C@@H](Cc3cccnc3)C(=O)N[C@@H]([C@@H](C)CC)C(=O)N(C)CC(=O)N(C)[C@H]3CCCCCN(C3=O)[C@@H](Cc3ccc(F)cc3)C(=O)N(C)CC(=O)N[C@@H](CCc3cc(F)c(C(F)(F)F)c(F)c3)C(=O)N2C1 [PP1196] | B (a compound having 3 or more and less than 10 is denoted as B) | 50.8 | B (a compound having 3 or more and less than 10 is denoted as B) | 0.04 |  |  |  | 
7 | CC[C@H](C)[C@@H]1NC(=O)[C@H](CC)N(C)C(=O)C[C@@H](C(=O)N(C)C)N(C)C(=O)[C@H](C2CCCC2)N(C)C(=O)C2(CCC2)NC(=O)CN(CC)C(=O)[C@H](CCc2cc(F)c(C(F)(F)F)c(F)c2)NC(=O)CN(C)C(=O)[C@H](Cc2ccc(C(F)(F)F)cc2)N2CC/C=C\C[C@@H](C2=O)N(C)C(=O)CN(C)C1=O [PP1143] | A (a compound having 10 or more and less than 20 is denoted as A) | 75.3 | A (a compound having 10 or more and less than 20 is denoted as A) | 0.17 |  |  |  | 
8 | CCO[C@@H]1C[C@H]2C(=O)NC3(CCC3)C(=O)N(C)[C@@H](C3CCCC3)C(=O)N(C)[C@H](C(=O)N3CCCCC3)CC(=O)N(C)[C@@H](CC)C(=O)N[C@@H]([C@@H](C)CC)C(=O)N(C)CC(=O)N(C)[C@H]3C/C=C\CCN(C3=O)[C@@H](Cc3ccc(C(F)(F)F)cc3)C(=O)N(C)CC(=O)N[C@@H](CCc3cc(F)c(C(F)(F)F)c(F)c3)C(=O)N2C1 [PP1289] |  | 34.7 |  |  | A (a compound having 10 or more and less than 20 is denoted as A) | AA (a compound having 20 or more is denoted as AA) | 0.17 | 
9 | CC[C@H](C)[C@@H]1NC(=O)[C@@H]2CCCCc3ccc(cc3)C[C@@H](C(=O)N(C)CC(=O)N[C@@H](CCc3ccc(C(F)(F)F)c(OC)c3)C(=O)N3C[C@H](OC4CCC4)C[C@H]3C(=O)NC3(CC(C)(C)C3)C(=O)N(C)[C@@H](C3CCCC3)C(=O)N(C)[C@H](C(=O)N(C)CC)CC(=O)N2C)N2CC/C=C\C[C@@H](C2=O)N(C)C(=O)CN(C)C1=O [PP3079] | B (a compound having 3 or more and less than 10 is denoted as B) | 1.8 | A (a compound having 10 or more and less than 20 is denoted as A) | 0.05 |  |  |  | ratio of the KD value with respect to GDP-bound HRAS wild-type protein to the KD value with respect to KRAS ([1]; SPR, KD(HRAS)/KD(KRAS)): B (a compound having 3 or more and less than 10 is denoted as B); IC50 ([2]; read-out: NCI-H441 cell proliferation inhibitory activity, 50% proliferation inhibitory concentration (IC50 value), NCI-H441, four days, CellTiter-Glo): 1.8 nM; ratio of the KD value with respect to GDP-bound NRAS wild-type protein to the KD value with respect to KRAS ([3]; SPR, KD(NRAS)/KD(KRAS)): A (a compound having 10 or more and less than 20 is denoted as A)
10 | CCC[C@H]1C(=O)N[C@@H]([C@@H](C)CC)C(=O)N2CCC[C@H]2C(=O)N(C)[C@H]2C/C=C\CCN(C2=O)[C@@H](Cc2ccc(C)cc2)C(=O)N(C)CC(=O)N[C@@H](CCc2ccc(C(F)(F)F)c(OC)c2)C(=O)N2C[C@@H](C)C[C@H]2C(=O)N(C)C2(CCC2)C(=O)N(C)[C@@H](C2CCCC2)C(=O)N(C)[C@H](C(=O)N(C)C)CC(=O)N1C [PP2368] | A (a compound having 10 or more and less than 20 is denoted as A) | 4.1 | A (a compound having 10 or more and less than 20 is denoted as A) | 0.045 |  |  |  | 
11 | CCO[C@@H]1C[C@H]2C(=O)NC3(CCC3)C(=O)N(C)[C@@H](C3CCCC3)C(=O)N(C)[C@H](C(=O)N(C)C)CC(=O)N(C)[C@@H](CSC)C(=O)N[C@@H]([C@@H](C)CC)C(=O)N(C)CC(=O)N(C)[C@H]3C/C=C\CCN(C3=O)[C@@H](CC3CCC(F)(F)CC3)C(=O)N(C)CC(=O)N[C@@H](CCc3cc(F)c(C(F)(F)F)c(F)c3)C(=O)N2C1 [PP1449, (2S,8S,12R,14S,20S,23S,27R,30S,36S,38Z)-20-cyclopentyl-2-[(4,4-difluorocyclohexyl)methyl]-8-[2-[3,5-difluoro-4-(trifluoromethyl)phenyl]ethyl]-12-ethoxy-N,N,4,19,22,26,32,35-octamethyl-30-[(1 S)-1-methylpropyl]-27-(methylsulfanylmethyl)-3,6,9,15,18,21,25,28,31,34,42-undecaoxo-spiro[1,4,7,10,16,19,22,26,29,32,35-undecazatricyclo[34.5.1.0^10,14]dotetracont-38-ene-17,1′-cyclobutane]-23-carboxamide] |  | 30.6 |  |  | A (a compound having 10 or more and less than 20 is denoted as A) | A (a compound having 10 or more and less than 20 is denoted as A) | 0.098 | 
